Experimental findings from US12616704B2, “Cannabichromene formulation for pain management” (Zyus Life Sciences Inc., priority 2020, dated 2026) are described below.

For the assay, the system named is Oxaliplatin-induced cool allodynia. The assay can be described thus: Acetone Cooling Test (ACT) in oxaliplatin-induced polyneuropathy (OIPN) model. It counts as in vivo, C57BL/6J mice. To be noted: CBC 20 mg/kg p.o. The protocol:
Model Induction—Mouse Oxaliplatin-induced polyneuropathy (OIPN) model was induced over a three-week period. The day of first Oxaliplatin (OXP) injection is referred to as day 0 (DO). OXP was administered as six separate intraperitoneal injections at 4.5-mg/kg (10 ml/kg, i.p.) to Groups 2, 3, and 4 on DO, D4, D8, D12, D16, and D20. The cumulative OXP dose was thus 27 mg/kg. The in-life procedures, such as observations, tests, and/or measurements were performed by Charles River Discovery Services with blinded methods. The mice were distributed into 4 groups (n=8 for Vehicle Control; n=10 OXP Control; n=20 CBC; n=15 Duloxetine).
Treatments—Following exposure to OXP for 20 days, Groups 3 and 4 were treated with CBC (20 mg/kg, p.o.) and Duloxetine (25 mg/kg, i.p.), respectively, for 10 consecutive days. In a similar regimen Groups 1 and 2 (Vehicle Control and OXP-Vehicle Control, respectively) received a corresponding volume of 5% glucose solution at an administration volume of 10 mL/kg.
Acetone Cooling Test (ACT) —To produce a measurable cooling sensation, 10-15 μL of acetone was applied onto the medial area of the plantar hind paw with a 0.5 ml insulin syringe. Responses of a mouse to acetone were monitored for 20 s, and a score given based on a four-point scale (0-3 points), according to the response intensity, continuation, and briskness. The higher the score, the greater the cool allodynia sensed by the mouse.
Within one test timepoint, a total of 3 trials were performed per paw with a minimum gap of 5 min between testing. The three individual scores were added up to obtain a single score over a cumulative period of 60 s. Thus, for one test, the minimum score of one paw is 0 (no cool allodynia), while the maximum possible score is 9 (intensive cool allodynia). The total scores for the left and right paws were averaged to accomplish a single result value per mouse at each timepoint.
The Acetone Cooling Test was performed prior to OXP administration (Baseline), following the last OXP injection (D21), one day after the first CBC, Duloxetine, or Vehicle treatment (D22), and after a 10-day daily dosing of CBC, Duloxetine, or Vehicle treatment (D31). Taken together, the ACT was used to assess chemotherapy-induce cool allodynia as stated in the schedule:
On D22: At 60 min after the first Vehicle/CBC dose and 120 min after Dulx dose.
On D31: At 60 min after the last Vehicle/CBC and 120 min after Dulx dose.

In the case of `CCCCCc1cc(O)c2c(c1)OC(C)(CCC=C(C)C)C=C2` (centres unmarked) [CBC, cannabichromene], the “ACT score compared with OXP-Vehicle control” value is “statistically significant and comparable reduction in cool allodynia” (D22, acute single dose, Duloxetine 25 mg/kg i.p.); “qualitative but not statistically significant reduction” (D31, chronic repeated dosing, Duloxetine 25 mg/kg i.p.). Further, where the note is “D31, chronic repeated dosing, Mann-Whitney test”, the “ACT score compared with OXP-Vehicle control: p” value is reported as 0.06. Also, where the note is “within group, 10-day repeated dosing, Duloxetine 25 mg/kg i.p.”, the “ACT score, D31 vs. D21” value is “significant reversion of cool allodynia”. The “ACT score, reversion of cool allodynia D22 vs. D21 pre-treatment: p” value (within group, single dose, Duloxetine 25 mg/kg i.p.) is below 0.001.
